{"source": "paper PMC5967629", "about": "(Bioorganic & medicinal chemistry, 2018)", "key": {"MDA-MB-435 cancer cells": {"system": "MDA-MB-435 cancer cells", "experiment": "SRB antiproliferative assay in MDA-MB-435 cells", "type": "cell-based", "conditions": "for antiproliferative activity (in words): MDA-MB-435 cells, Table 2; for fold less potent than 1 in MDA-MB-435 cells: relative to IC50 of 1"}, "Parental SK-OV-3": {"system": "Parental SK-OV-3", "experiment": "SRB assay in parental SK-OV-3 cells", "type": "cell-based", "conditions": "Homo sapiens, SK-OV-3, read-out: IC50 ± SD Parental SK-OV-3"}, "[1]": {"experiment": "Metabolite identification of 3 in human liver microsomes", "type": "in vitro ADME", "conditions": "3 at 20 μM incubated with human liver microsomes"}, "A-10 cells": {"system": "A-10 cells", "type": "cell-based", "conditions": "for microtubule depolymerization activity (in words): A-10 cells, Table 2"}}}
{"molecule": "COc1ccc(N(C)c2nc(C)nc3c2CCC3)cc1", "note": "[Compound 1]", "values": [{"measurement": "IC50", "setting": "MDA-MB-435 cancer cells; Homo sapiens, MDA-MB-435, read-out: IC50 ± SD (MDA-MB-435) Cancer cells", "result": "7 ± 0.7", "unit": "nM"}, {"measurement": "IC50", "setting": "Parental SK-OV-3", "result": "11.3 ± 0.2", "unit": "nM"}]}
{"molecule": "Cc1nc2c(c(N(C)c3ccc(O)cc3)n1)CCC2", "note": "[Compound 2, N-(4-Hydroxylphenyl)-N,2-dimethyl-6,7-dihydro-5H-cyclopenta[d]pyrimidin-4-amine]", "values": [{"measurement": "antiproliferative activity (in words)", "setting": "MDA-MB-435 cancer cells", "result": "low activity"}]}
{"molecule": "CSc1ccc(N(C)c2nc(C)nc3c2CCC3)cc1", "note": "[Compound 3, N-(4-Methiophenyl)-N,2-dimethyl-6,7-dihydro-5H-cyclopenta[d]pyrimidin-4-amine]", "values": [{"measurement": "MS Peak Area in 60 min sample, HPLC area", "setting": "[1]", "result": "2,061,000"}]}
{"molecule": "Cc1nc2c(c(N(C)c3ccc([S+](C)[O-])cc3)n1)CCC2", "note": "(stereo not shown) [Compound 5, N-(4-Methylsulfinylphenyl)-N,2-dimethyl-6,7-dihydro-5H-cyclopenta[d]pyrimidin-4-amine]", "values": [{"measurement": "MS Peak Area in 60 min sample, HPLC area", "setting": "[1]", "result": "2,199,500"}]}
{"molecule": "Cc1nc2c(c(N(C)c3ccc(S(C)(=O)=O)cc3)n1)CCC2", "note": "[Compound 6, N-(4-Methylsulfonylphenyl)-N,2-dimethyl-6,7-dihydro-5H-cyclopenta[d]pyrimidin-4-amine]", "values": [{"measurement": "microtubule depolymerization activity (in words)", "setting": "A-10 cells", "result": "inactive"}, {"measurement": "MS Peak Area in 60 min sample, HPLC area", "setting": "[1]", "result": "98,900"}]}
{"molecule": "CNc1ccc(N(C)c2nc(C)nc3c2CCC3)cc1", "note": "[Compound 7, N-(4-Methylaminophenyl)-N,2-dimethyl-6,7-dihydro-5H-cyclopenta[d]pyrimidin-4-amine]", "values": [{"measurement": "fold less potent than 1 in MDA-MB-435 cells", "setting": "MDA-MB-435 cancer cells", "result": 2.9, "unit": "fold"}]}
{"molecule": "Cc1nc2c(c(N(C)c3ccc(N)cc3)n1)CCC2", "note": "[Compound 8, N-(4-Aminophenyl)-N,2-dimethyl-6,7-dihydro-5H-cyclopenta[d]pyrimidin-4-amine]", "values": [{"measurement": "antiproliferative activity (in words)", "setting": "MDA-MB-435 cancer cells", "result": "low activity"}]}
{"molecule": "Cc1nc2c(c(N(C)c3ccc4c(c3)CCO4)n1)CCC2", "note": "[Compound 9, N-(2,3-Dihydrobenzofuran-5-yl)-N,2-dimethyl-6,7-dihydro-5H-cyclopenta[d]pyrimidin-4-amine]", "values": [{"measurement": "fold less potent than 1 in MDA-MB-435 cells", "setting": "MDA-MB-435 cancer cells", "result": 1.7, "unit": "fold"}]}
{"molecule": "COc1ccc(N(C)c2nc(C)nc3c2CCC3)cc1C", "note": "[Compound 10, N-(3-Methyl-4-methoxylphenyl)-N,2-dimethyl-6,7-dihydro-5H-cyclopenta[d]pyrimidin-4-amine]", "values": [{"measurement": "fold less potent than 1 in MDA-MB-435 cells", "setting": "MDA-MB-435 cancer cells", "result": "about 2.6 fold"}]}
{"molecule": "COc1ccc(CN(C)c2nc(C)nc3c2CCC3)cc1", "note": "[Compound 12, N-(4-Methoxylphenyl)methyl-N,2-dimethyl-6,7-dihydro-5H-cyclopenta[d]pyrimidin-4-ammonium chloride]", "values": [{"measurement": "antiproliferative activity (in words)", "setting": "MDA-MB-435 cancer cells", "result": "poor MDA-MB-435 inhibitory activity"}]}
{"molecule": "COc1ccc([C@H](C)N(C)c2nc(C)nc3c2CCC3)cc1", "note": "[Compound 13, N-[1(1S)-(4-Methoxylphenyl)ethyl]-N,2-dimethyl-6,7-dihydro-5H-yclopenta[d]pyrimidin-4-amine]", "values": [{"measurement": "microtubule depolymerization activity (in words)", "setting": "A-10 cells", "result": "devoid of any microtubule depolymerization activity"}]}
{"molecule": "COc1ccc([C@@H](C)N(C)c2nc(C)nc3c2CCC3)cc1", "note": "[Compound 14, N-[1(1R)-(4-Methoxylphenyl)ethyl]-N,2-dimethyl-6,7-dihydro-5H-cyclopenta[d]pyrimidin-4-amine]", "values": [{"measurement": "microtubule depolymerization activity (in words)", "setting": "A-10 cells", "result": "devoid of any microtubule depolymerization activity"}]}
{"molecule": "N-(4-Methoxycyclohexyl)-N,2-dimethyl-6,7-dihydro-5H-cyclopenta[d]pyrimidin-4-amine [Compound 11]", "values": [{"measurement": "microtubule depolymerization activity (in words)", "setting": "A-10 cells", "result": "devoid of any microtubule depolymerization activity"}, {"measurement": "EC50", "setting": "A-10 cells; read-out: EC50 in A-10 cells, microtubule depolymerizing activity", "result": "> 10000", "unit": "nM"}]}
